The subject of test [1] is MCF-7 breast cancer cells. Kind of test: Irreversible inhibition of cell growth, Stage 1 and Stage 2 (Coulter cell counter). The format is cell-based. The settings on record: for effect on cell growth compared with controls, Stage 1: 5 μm and 1 μm; for effect on cell growth compared with controls, Stage 1 / cell numbers, % of the control cell number, Stage 1: 6 days; for effect on cell numbers, Stage 2 (irreversible growth inhibition): re-seeded after 6-day treatment, further 6 days without drug. How it is done:
MCF-7 breast cancer cells were seeded into multi-well culture plates at a density of 10^5 cells/well. Cells were allowed to attach and grown until about 30% confluent when they were treated as follows:
Cells were grown for 6 days in growth medium containing the above drugs with changes of medium/drug every 3 days. At the end of this period cell numbers were counted using a Coulter cell counter.
After treatment of cells for a 6-day period with the above drugs cells were re-seeded at a density of 10^4 Cells/well. No further treatments were added. Cells were allowed to continue to grow for a further 6 days in the presence of growth medium. At the end of this period cell numbers were again counted.
Stages 1 and 2 described above were repeated using Control—no treatment, EMATE 20 μM and EMATE 5 μM.
MCF-7 breast cancer cells were seeded into multi-well culture plates at a density of 10^5 cells/well. Cells were allowed to attach and grown until about 30% confluent when they were treated as follows: • Control—no treatment • Compound of Interest (COI) 20 μM
Cells were grown for 6 days in growth medium containing the COI with changes of medium/COI every 3 days. At the end of this period cell numbers were counted using a Coulter cell counter.
After treatment of cells for a 6-day period with the COI cells were re-seeded at a density of 10^4 cells/well. No further treatments were added. Cells were allowed to continue to grow for a further 6 days in the presence of growth medium. At the end of this period cell numbers were again counted.

The subject of test [2] is MCF7 cells. The test can be described thus: Proportion of cells in mitosis (PI stained cytospins, confocal microscopy). The class given is cell-based. The settings on record: 24 hours (control 4%). How it is done: To determine the proportion of cells in mitosis, drug treated cells were collected by trypsinisation and cytospins prepared. Cells were fixed in ice cold methanol for 5 minutes, air dried and DNA was stained using propidium iodide (PI) (0.1 mg/ml in phosphate buffered saline (PBS) containing 10% (v/v) newborn calf serum and 0.05% (w/v) sodium azide). Cells were analysed by confocal microscopy using a Zeiss Axiovert 100 M microscope equipped with the LSM 510 confocal system (Zeiss, Jena, Germany).
Effect of estrone derivatives on mitosis in MCF7 cells. MCF7 cells were treated with the indicated compounds for 24 hours. Cells were recovered by trypsinisation and cytospins prepared. DNA was stained with PI and cells in mitosis (i.e., with condensed chromosomes) determined as a percentage of total cells.

Test [3] deals with MCF-7 breast cancer cells. The test can be described thus: Cell morphology by photomicrographs. The format is cell-based. How it is done: (§1) MCF-7 (ER+) and MDA-MB-231 (ER−) breast cancer cells were obtained from the American Type Culture Collection (Rockville, Md.). Cells were routinely cultured in 25 cm^2 culture flasks in Eagle's minimum essential medium (EMEM) with Hepes buffer (20 mM). This medium was supplemented with L-glutamine (2 mM), sodium hydrogen carbonate (10 mM), 1% non-essential amino acids and 5% (v/v) foetal calf serum (FCS). Before adding test compounds, cells were washed with phosphate-buffered saline (PBS) and treatments added in phenol-red free medium containing 2% stripped FCS and supplements. The effects of 2-MeOE1 or 2-MeOEMATE on the growth of MCF-7 cells was assessed using a Cell Titer 96 cell proliferation assay (Promega, Southampton, Hants, UK) according to the manufacturers' instructions. For this, cells (5000 per well) were cultured in medium containing phenol-red and 10% FCS and were exposed to a drug for 4 days before the assay was performed. For MDA-MB-231 cells, cell numbers were determined using a Coulter counter.
Photomicrographs of control and treated cells were taken under normal conditions of light and exposure using an Olympus SL35 Type 12 camera under an Olympus CK2 microscope (×100 magnification).

The conditions of test [4]: rats, oral (16); cited from earlier work.
The subject of test [5] is MCF-7 breast cancer cells. The test can be described thus: Cell Titer 96 cell proliferation assay, 4-day drug exposure. The settings on record: 4 days. The class given is cell-based. How it is done: as §1
For test [6], the system named is nitrosomethylurea-induced mammary tumours. The test can be described thus: Growth of NMU-induced mammary tumours in intact rats. The format is in vivo, rat. The settings on record: 20 mg/kg/day, p.o., 11 days, individual animals. As for the experimental part:
The effect of 2-MeOEMATE on mammary tumour growth was examined in a preliminary study using Ludwig rats (Harlan Olac, Bicester, UK) in which tumours were induced by inoculation of NMU. Tumour development was monitored regularly and when 0.5-1.0 cm^3 in volume, animals received vehicle (propylene glycol, 200 μl/day, p.o.), 2-MeOEMATE (20 mg/kg/day, p.o.) or 2-MeOE1 (20 mg/kg/day, p.o.) daily for an 11 day period. Tumour length and width was measured with callipers and tumour volumes calculated as described (21).

Test [7] has as its system CAL51 cells. The test can be described thus: DNA content by flow cytometry of propidium iodide stained cells. The class given is cell-based. The settings on record: CAL51, 500 nM. How it is done: (§2) MCF7, CAL51, CAMA1 and ZR-75-1 breast cancer derived cell lines were obtained from ATCC (MCF7, CAMA1, ZR-75-1) or from the Dutrillaux laboratory (CAL51) (22) and maintained in Dulbecco's modified Eagle's medium (DMEM) supplemented with 10% (v/v) fetal calf serum and antibiotics.
(§3) DNA content was determined by flow cytometric analysis of propidium iodide stained cells and TdT-mediated dUTP-nick end labelling (TUNEL), respectively, as described (20). The proportion of cells in G2/M phase of the cell cycle was calculated as a proportion of cells with […] DNA content. The proportion of cells with <G1 DNA content was calculated as a percentage of total cells.
On the technique in general: In flow cytometry, cells or beads pass a laser one at a time.

Test [8] relates to CAMA1 cells. Described as above. The class given is cell-based. The settings on record: CAMA1, 500 nM. How it is done: as §2, §3
The test system of test [9] is MCF7 cells. The description is as above. The class given is cell-based. The settings on record: MCF7, 500 nM. How it is done:
as §2, §3

The subject of test [10] is ZR-75-1 cells. The description is as above. The format is cell-based. The settings on record: ZR-75-1, 500 nM. As for the experimental part:
as §2, §3

For test [11], the system named is CAL51 cells. Kind of test: TUNEL assay. The class given is cell-based. The settings on record: CAL51, 500 nM for 72 hours. As for the experimental part: as §3
(§4) We used the TUNEL assay to confirm that the cell death detected by flow cytometry of PI stained cells was due to apoptosis. Following exposure to 2-EtEMATE (500 nM for 72 hours) there was a significant increase in the proportion of CAL51 and CAMA1 cells undergoing apoptosis (60% and 37% TUNEL positive cells, respectively) (FIG. 16). By contrast, there was only a modest increase in TUNEL positivity in MCF7 or ZR-75-l cells (7% and 10%, respectively) treated with 2-EtEMATE at this concentration.

For test [12], the system named is CAMA1 cells. Kind of test: TUNEL assay. The settings on record: CAMA1, 500 nM for 72 hours. The class given is cell-based. How it is done: as §3, §4
The test system of test [13] is MCF7 cells. Kind of test: TUNEL assay. The class given is cell-based. The settings on record: MCF7, 500 nM for 72 hours. How it is done: as §3, §4
Test [14] concerns ZR-75-1 cells. The test can be described thus: TUNEL assay. The format is cell-based. The settings on record: ZR-75-1, 500 nM for 72 hours. As for the experimental part:
as §3, §4

Test [15] relates to MCF7, ZR-75-1, CAL51 and CAMA1 cells. Kind of test: Microtitre plate growth inhibition assay (FIG. 14). The format is cell-based.

Values joined by “and” are separate entries in the source; they are usually repeats but may differ in a detail not shown here. Equal entries are not always repeated.

In the case of `CCc1cc2c(cc1O)CC[C@@H]1[C@@H]2CC[C@]2(C)C(=O)CC[C@@H]12` [2-EtE1, 2-Ethylestrone, reference compound], the “effect on cell growth compared with controls, Stage 1” value in test [1] is given as “little effect on cell growth”. In test [1], the “effect on cell numbers, Stage 2 (irreversible growth inhibition)” value (“effect … (irreversible growth inhibition)” for short) is “little effect on cell numbers”. The “mitotic cells, percentage of total cells” value worked out at 4% in test [2] (500 nM) and 6% in test [2] (5 μM).
As to `CC12CCC3c4ccc(OS(N)(=O)=O)cc4CCC3C1CCC2=O` (centres unmarked) [EMATE, oestrone-3-O-sulphamate], the “effect on cell morphology” value in [3] (10 μM) is “did not affect cell morphology”. In addition, the “cell number, Stage 1” value is given as “EMATE 5 μM = 139% control” in [1] (5 μM) and “EMATE 20 μM = 119% control” in test [1] (20 μM). The “cell number, Stage 2” value in test [1] (5 μM) was “EMATE 5 μM = 98% control”; in [1] (20 μM), “EMATE 20 μM = 103% control”. Besides, in test [4], the “oral uterotrophic activity relative to estradiol” value is 100 times.
Take `C[C@]12CC[C@@H]3c4ccc(O)cc4CC[C@H]3[C@@H]1CCC2=O` [Oestrone]: the “effect on cell morphology” value in test [3] (10 μM) was “did not affect cell morphology”.
For the molecule `COc1cc2c(cc1O)CC[C@@H]1[C@@H]2CC[C@]2(C)C(=O)CC[C@@H]12` [2-MeOE1, 2-methoxyoestrone, reference compound], the entries for the “inhibition of proliferation of MCF-7 cells” value in [5] (0.1 μM), in test [5] (1.0 μM) and in [5] (10 μM) were “little effect”, “little effect” and 19%, respectively. Also, in [3] (1 μM, 24 h), the “effect on cell morphology” value is “little effect on cell morphology”. For the same molecule, in test [6], the “reduction in tumour volume” value is “little effect on tumour growth and no change in tumour volume and 25%”. The “effect on cell growth compared with controls, Stage 1” value in test [1] was “little effect on cell growth”. Also, the “effect … (irreversible growth inhibition)” value in test [1] is “little effect on cell numbers”.
Turning to `CCc1cc2c(cc1OS(N)(=O)=O)CCC1C2CCC2(C)C(=O)CCC12` (centres unmarked) [2-EtEMATE, 2-Ethylestrone-3-O-sulfamate], the “cell numbers, % of the control cell number, Stage 1” value in [1] (1 m (so in the source)) is 50%; in test [1] (5 μm), 36%. In addition, the “effect … (irreversible growth inhibition)” value in [1] is recorded as “severely growth restricted”. For the same molecule, the “<G1 DNA content, percent of total cells” value came to 2% in [7] (24 hours); 10% in test [7] (48 hours); 21% in test [7] (72 hours); 4% in [8] (24 hours); 16% in test [8] (48 hours); 36% in test [8] (72 hours). For the same molecule, the “<G1 DNA content, percent of total cells” value in test [9] (24 hours) was 5%; in test [9] (48 hours), 5%; in test [9] (72 hours), 12%; in test [9] (96 hours), 8%; in test [10] (24 hours), 1%; in test [10] (48 hours), 6%. The “<G1 DNA content, percent of total cells” value in [10] (72 hours) came to 12%; in test [10] (96 hours) it was 9%. The “G1/S, percentage of total cells with a 2N to 4N DNA content” value (“G1/S, percentage of total cells” below) in test [7] (24 hours) stood at 38%; in test [7] (48 hours), 18%; in test [7] (72 hours), 32%; in [7] (96 hours), 23%; in test [8] (24 hours), 33%; in [8] (48 hours), 25%. Further, the “G1/S, percentage of total cells” value turned out to be 33% in test [8] (72 hours); 33% in test [8] (96 hours); 63% in [9] (24 hours); 38% in [9] (48 hours); 34% in [9] (72 hours); 29% in test [9] (96 hours). The “G1/S, percentage of total cells” value in [10] (24 hours) worked out at 84%; in test [10] (48 hours), 60%; in test [10] (72 hours), 37%; in test [10] (96 hours), 20%. For the same molecule, the “G2/M, percentage of total cells with a 2N to 4N DNA content” value (shortened to “G2/M, percentage of total cells”) in test [7] (48 hours) stood at 82%; in [7] (72 hours), 68%; in test [7] (96 hours), 77%; in [8] (48 hours), 75%; in [8] (72 hours), 67%; in [8] (96 hours) it was 67%. The “G2/M, percentage of total cells” value in test [9] (24 hours) is 37%; in [9] (72 hours) it was 66%; in [9] (96 hours), 71%; in [10] (24 hours) it was 15%; in test [10] (48 hours), 40%; in test [10] (72 hours), 60% and 63%. For the same molecule, the “G2/M, percentage of total cells” value in [10] (96 hours) stood at 80%. The results for the “mitotic cells, percentage of total cells” value in [2] (500 nM) and in test [2] (5 μM) were 29% and 49%, respectively. Moreover, the TUNEL positive cells is reported as 60% in test [11], 37% in test [12], 7% in test [13] and 10% in test [14]. In addition, the “lowest dose that gave significant growth inhibition in each cell line” value in [15] is on record as 500 nM.

The values are drawn from patent US7078395B1, “Methods for treating or preventing cancer by preventing, inhibiting or arresting cell cycling” (priority 1999, dated 2006).
